In US20170066759A1, “AROMATIC 5-MEMBERED HETEROCYCLIC DERIVATIVE HAVING TRPV4-INHIBITING ACTIVITY” (Shionogi & Co., Ltd., priority 2012, published 2017):
pIC50: −log10 of the molar value.

Assays:
[1] = target: T1, hERG (IKr) (Homo sapiens, UniProt Q12809); assay: Test Example 10: hERG test (IKr, whole cell patch clamp); format: cell-based; details: HEK293 cells expressing hERG channel, pH 7.4, 1 μmol/L of the compound, read-out: hERG % inhibition of tail peak current (IKr)
T1 construct: expressed in transfected cells; host or cells: HEK293
From the text: For the purpose of assessing risk of an electrocardiogram QT interval prolongation of a compound of the present invention, effects of the compound of the present invention on delayed rectifier K^+ current (IKr), which plays an important role in the ventricular repolarization process, was studied using HEK293 cells expressing human ether-a-go-go related gene (hERG) channel.
After a cell was retained at a membrane potential of −80 mV by whole cell patch clamp method using an automated patch clamp system (PatchXpress 7000A, Axon Instruments Inc.), IKr induced by depolarization pulse stimulation at +40 mV for 2 seconds and, further, repolarization pulse stimulation at −50 mV for 2 seconds was recorded. […] From the recording IKr, an absolute value of the tail peak current was measured based on the current value at the resting membrane potential using an analysis software (DataXpress ver. 1, Molecular Devices Corporation). Further, the % inhibition relative to the tail peak current before application of the compound of the present invention was calculated, and compared with the vehicle-applied group (0.1% dimethyl sulfoxide solution) to assess influence of the compound of the present invention on IKr. […]

[2] = target: T2, CYP1A2 (Homo sapiens, UniProt P05177); assay: Test Example 6: CYP inhibition test, 7-ethoxyresorufin O-deethylation (CYP1A2); format: in vitro ADME; details: pooled human hepatic microsome, 0.5 μmol/L ethoxyresorufin
T2 construct: enzyme, pooled human hepatic microsome 0.2 mg protein/mL; from tissue; host or cells: pooled human liver microsomes
T2 sequence (P05177 1-516): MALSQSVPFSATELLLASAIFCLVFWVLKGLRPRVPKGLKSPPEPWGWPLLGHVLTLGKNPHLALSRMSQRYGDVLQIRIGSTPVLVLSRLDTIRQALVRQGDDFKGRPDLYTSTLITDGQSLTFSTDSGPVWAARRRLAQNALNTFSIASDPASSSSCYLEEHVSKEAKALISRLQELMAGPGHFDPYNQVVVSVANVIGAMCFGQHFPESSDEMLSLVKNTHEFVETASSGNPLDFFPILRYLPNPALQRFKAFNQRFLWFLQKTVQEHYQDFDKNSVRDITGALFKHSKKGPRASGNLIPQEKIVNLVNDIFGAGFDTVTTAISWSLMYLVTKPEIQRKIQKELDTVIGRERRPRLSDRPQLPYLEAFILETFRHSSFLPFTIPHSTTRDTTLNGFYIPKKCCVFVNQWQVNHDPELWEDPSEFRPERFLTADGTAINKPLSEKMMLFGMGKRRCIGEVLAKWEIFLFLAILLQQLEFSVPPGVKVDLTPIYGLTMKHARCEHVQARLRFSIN
Protocol: Test Example 6 CYP Inhibition Test […] The reaction conditions were as follows: substrate, 0.5 μmol/L ethoxyresorufin (CYP1A2), 100 μmol/L tolbutamide (CYP2C9), 50 μmol/L S-mephenytoin (CYP2C19), 5 μmol/L dextromethorphan (CYP2D6), 1 μmol/L terfenedine (CYP3A4); reaction time, 15 minutes; reaction temperature, 37° C.; enzyme, pooled human hepatic microsome 0.2 mg protein/mL; concentration of the compound of the present invention, 1, 5, 10, 20 μmol/L (four points). Each five kinds of substrates, human hepatic microsome, and the compound of the present invention in 50 mmol/L Hepes buffer as a reaction solution were added to a 96-well plate at the composition as described above. NADPH, as a cofactor was added to initiate metabolism reactions as markers and, after the incubation at 37° C. for 15 minutes, a methanol/acetonitrile=1/1 (v/v) solution was added to stop the reaction. After the centrifugation at 3000 rpm for 15 minutes, resorufin (CYP1A2 metabolite) in the supernatant was quantified by a fluorescent multilabel counter and toltributamide hydroxide (CYP2[…] metabolite), mephenytoin 4' hydroxide (CYP2C19 metabolite), […], and terfenadine alcohol (CYP3A4 metabolite) were quantified by LC/MS/MS. Addition of only DMSO being a solvent dissolving the compound of the present invention to a reaction system was adopted as a control (100%). Remaining activity (%) was calculated at each concentration of the compound of the present invention added as the solution and IC50 was calculated by reverse presumption by a logistic model using a concentration and an inhibition rate.

T1 sequence (Q12809 whole entry): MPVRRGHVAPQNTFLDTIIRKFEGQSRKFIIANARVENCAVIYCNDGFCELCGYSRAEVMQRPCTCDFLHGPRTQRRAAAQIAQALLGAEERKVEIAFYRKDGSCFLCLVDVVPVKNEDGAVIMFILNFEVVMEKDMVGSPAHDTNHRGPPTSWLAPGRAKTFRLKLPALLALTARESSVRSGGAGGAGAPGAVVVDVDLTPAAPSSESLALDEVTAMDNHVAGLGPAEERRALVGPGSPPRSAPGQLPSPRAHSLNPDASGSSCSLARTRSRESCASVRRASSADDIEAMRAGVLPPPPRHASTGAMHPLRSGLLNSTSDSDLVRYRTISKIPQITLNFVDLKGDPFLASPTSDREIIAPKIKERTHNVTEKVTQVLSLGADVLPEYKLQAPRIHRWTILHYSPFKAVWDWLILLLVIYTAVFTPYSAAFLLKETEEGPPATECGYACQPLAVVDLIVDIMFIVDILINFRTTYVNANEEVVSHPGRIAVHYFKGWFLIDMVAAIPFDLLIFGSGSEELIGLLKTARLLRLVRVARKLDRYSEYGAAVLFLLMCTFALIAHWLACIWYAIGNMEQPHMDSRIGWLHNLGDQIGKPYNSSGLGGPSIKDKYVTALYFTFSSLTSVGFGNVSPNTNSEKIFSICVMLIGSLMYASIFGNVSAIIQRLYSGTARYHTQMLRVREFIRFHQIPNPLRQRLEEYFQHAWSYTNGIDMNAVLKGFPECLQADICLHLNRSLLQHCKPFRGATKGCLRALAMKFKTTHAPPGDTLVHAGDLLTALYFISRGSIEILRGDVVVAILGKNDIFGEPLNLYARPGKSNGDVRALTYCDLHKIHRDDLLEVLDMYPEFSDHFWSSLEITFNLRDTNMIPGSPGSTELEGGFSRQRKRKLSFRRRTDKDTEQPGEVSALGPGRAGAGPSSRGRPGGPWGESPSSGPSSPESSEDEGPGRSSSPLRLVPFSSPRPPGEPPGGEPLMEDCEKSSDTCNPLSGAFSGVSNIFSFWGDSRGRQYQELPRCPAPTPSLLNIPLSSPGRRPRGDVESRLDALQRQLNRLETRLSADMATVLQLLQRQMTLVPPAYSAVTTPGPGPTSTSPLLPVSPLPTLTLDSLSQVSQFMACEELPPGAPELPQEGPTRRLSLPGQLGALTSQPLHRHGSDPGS

pIC50 [2] | SMILES | inhibition at 10 min, 1 μmol/L [1] [%]
 | Cc1nc(C)c(-c2csc(NC(=O)C3CCC(F)(F)C3)n2)s1 (centres unmarked) [Compound I-18] | 6.1
< 4.70 | Cc1nc(C)c(-c2csc(NC(=O)Cc3ccc(S(C)(=O)=O)cc3)n2)s1 [Compound I-17] | 
